Like-named read-outs stand apart in the source and are kept apart here.
What was measured:
[1] = Cytotoxicity determination (CCK-8, without addition of virus); format: cell-based; settings: human, HEp-2 cells (uninfected), no virus, Table C = greater than 100 μM, Table D = equal to or less than 100 μM and greater than 10 μM
Protocol: CPE reduction assays are performed as described by Sidwell and Huffman et al., Appl. Microbiol. (1971) 22(5):797-801 with slight modifications. HEp-2 cells (ATCC#, CCL-23) are seeded at a density of 1,500 cells/30 μL/well into the 384-well cell plate(s) (Corning#3701) one day prior to the assay. Compounds are added into 384-well cell plates by Labcyte POD 810 Plate Assembler system. Each of the test compounds is provided to duplicate wells of a 384-well cell plate at final concentrations starting from 100 μM or 1 μM using 1/3 stepwise dilutions for 9 points. Quick-thaw Respiratory Syncytial Virus (RSV) long strain (ATCC#VR-26) stock in a 37° C. water bath. Place on ice until ready to use. Viruses are diluted to the concentration of 100 TCID50/30 μL with medium and 30 μl diluted RSV are added into related wells of 384-well cell plates. For each plate, sixteen wells are set aside as uninfected, untreated cell controls (CC), and nine wells per test plate receive virus only as a control for virus replication (VC). The final DMSO concentration of all wells is 1%. Place the plates at 37° C., 5% CO2 for 5 days.
In order to determine the compound cytotoxicity, in parallel, each of the compounds is applied to duplicate wells in a 384-well cell plate at serial final concentrations starting from 100 μM using ½ stepwise dilutions for 7 points without addition of virus. Incubate the cells at 37° C., 5% CO2 for 5 days. Add 6 μL CCK-8 into each well and incubate in a CO2 incubator at 37° C. for 3-4 h. Read the plates to obtain the optical densities which are used to calculate 50% cytotoxicity concentration (CC50).

recombinant RSV complex = recombinant RSV complex (Human respiratory syncytial virus A, UniProt P28887); assay: RSV polymerase inhibition assay; format: biochemical; settings: 2 h at 30° C., Table E = <1 μM, Table F = <50 μM
Protocol: Standard RSV polymerase assays were conducted in the presence of 10 nM recombinant RSV complex in a reaction buffer containing Tris-HCl pH7.5, 6 mM MgCl2, and other additives and substrates including RNA oligonucleotides and radionucleotides. Standard reactions were incubated in 96-well plate format for 2 h at 30° C., in the presence of increasing concentration of inhibitor. The reaction was stopped with 90 μL of 0.1M EDTA, and the reaction product was transferred to a “reading” 96-well plate. After washing of the plate, radiolabeled RNA products were detected according to standard procedures with a Trilux Topcount scintillation counter. The compound concentration at which the enzyme-catalyzed rate was reduced by 50% (IC50) was calculated by fitting the data to a non-linear regression (sigmoidal).

[2] = test system: RSV subgenomic replicon 395 HeLa and APC126; assay: RSV subgenomic replicon assay (Renilla luciferase); format: cell-based; settings: human respiratory syncytial virus; RSV replicon cells (395 HeLa 7 days or APC126 3 days); Table G = less than 1 μM, Table H = equal to or higher than 1 μM and less than 50 μM
Source text: The RSV subgenomic replicon 395 HeLa and APC126 were licensed from Apath (Brooklyn, N.Y.) and were originally developed by Dr. Mark Meeples of Center for Vaccines & Immunity, the Research Institute at Nationwide Children's Hospital in Columbus, Ohio. To generate subgenomic RSV replicon, three glycoprotein genes, those for SH, G, and F, from a full-length recombinant GFP-expressing (rg) RSV antigenomic cDNA were deleted. In their place, a blasticidin S deaminase (bsd) gene was inserted. Through multiple steps, the RSV replicon was established in HeLa cells (395 Hela) or BHK cells (APC126). Both 395 HeLa and APC126 cells were cultured in Dulbecco's Modified Eagle Medium (DMEM) containing 4500 mg/L D-glucose, L-glutamine, and 110 mg/L sodium pyruvate (Invitrogen, Cat. #11995-040). The medium was further supplemented with 10% (v/v) fetal bovine serum (FBS) (Mediatech, Cat. #35-010-CV), 1% (v/v) penicillin/streptomycin (Mediatech, Cat. #30-002-CI), and 10 μg/mL of Blasticidin (BSD) (Invivogen, Cat. code ant-bl-1). Cells were maintained at 37° C. in a humidified 5% CO2 atmosphere.
Determination of 50% inhibitory concentration (EC50), 90% inhibitory concentration (EC90) and 50% cytotoxic concentration (CC50) in RSV replicon cells were performed by the following procedure. On the first day, 5000 RSV replicon cells per well were plated in a 96-well plate. On the following day, compounds to be tested were solubilized in 100% DMSO to 100X the desired final testing concentration. Each compound was serially diluted (1:3) up to 9 distinct concentrations. Compounds in 100% DMSO were reduced to 10% (v/v) DMSO by diluting 1:10 in cell culture media. A 10 μL sample of the compounds diluted to 10% (v/v) DMSO with cell culture media was used to treat the RSV replicon cells in 96-well format. The final DMSO concentration was 1% (v/v). Cells were incubated with compounds for 7 days (for 395Hela) or 3 days (for APC126) at 37° C. in a 5% CO2 atmosphere. In each assay, positive control that was previously characterized in the RSV replicon assay was included.
The Renilla Luciferase Assay System (Promega, Cat. #E2820) was used to measure anti-RSV replicon activity. Assay plates were set up as stated above. Luminescence was recorded using a Perkin Elmer multilabel counter Victor3V. EC50, the concentration of the drug required for reducing RSV replicon RNA by 50% in relation to the untreated cell control value, was calculated from the plot of percentage reductions of the […] against the drug concentrations using the Microsoft Excel forecast function.

[3] = 10 nM recombinant RSV complex, read-out: IC50
[4] = IC50, 10 nM recombinant RSV complex

Sequence of recombinant RSV complex (P28887 whole entry): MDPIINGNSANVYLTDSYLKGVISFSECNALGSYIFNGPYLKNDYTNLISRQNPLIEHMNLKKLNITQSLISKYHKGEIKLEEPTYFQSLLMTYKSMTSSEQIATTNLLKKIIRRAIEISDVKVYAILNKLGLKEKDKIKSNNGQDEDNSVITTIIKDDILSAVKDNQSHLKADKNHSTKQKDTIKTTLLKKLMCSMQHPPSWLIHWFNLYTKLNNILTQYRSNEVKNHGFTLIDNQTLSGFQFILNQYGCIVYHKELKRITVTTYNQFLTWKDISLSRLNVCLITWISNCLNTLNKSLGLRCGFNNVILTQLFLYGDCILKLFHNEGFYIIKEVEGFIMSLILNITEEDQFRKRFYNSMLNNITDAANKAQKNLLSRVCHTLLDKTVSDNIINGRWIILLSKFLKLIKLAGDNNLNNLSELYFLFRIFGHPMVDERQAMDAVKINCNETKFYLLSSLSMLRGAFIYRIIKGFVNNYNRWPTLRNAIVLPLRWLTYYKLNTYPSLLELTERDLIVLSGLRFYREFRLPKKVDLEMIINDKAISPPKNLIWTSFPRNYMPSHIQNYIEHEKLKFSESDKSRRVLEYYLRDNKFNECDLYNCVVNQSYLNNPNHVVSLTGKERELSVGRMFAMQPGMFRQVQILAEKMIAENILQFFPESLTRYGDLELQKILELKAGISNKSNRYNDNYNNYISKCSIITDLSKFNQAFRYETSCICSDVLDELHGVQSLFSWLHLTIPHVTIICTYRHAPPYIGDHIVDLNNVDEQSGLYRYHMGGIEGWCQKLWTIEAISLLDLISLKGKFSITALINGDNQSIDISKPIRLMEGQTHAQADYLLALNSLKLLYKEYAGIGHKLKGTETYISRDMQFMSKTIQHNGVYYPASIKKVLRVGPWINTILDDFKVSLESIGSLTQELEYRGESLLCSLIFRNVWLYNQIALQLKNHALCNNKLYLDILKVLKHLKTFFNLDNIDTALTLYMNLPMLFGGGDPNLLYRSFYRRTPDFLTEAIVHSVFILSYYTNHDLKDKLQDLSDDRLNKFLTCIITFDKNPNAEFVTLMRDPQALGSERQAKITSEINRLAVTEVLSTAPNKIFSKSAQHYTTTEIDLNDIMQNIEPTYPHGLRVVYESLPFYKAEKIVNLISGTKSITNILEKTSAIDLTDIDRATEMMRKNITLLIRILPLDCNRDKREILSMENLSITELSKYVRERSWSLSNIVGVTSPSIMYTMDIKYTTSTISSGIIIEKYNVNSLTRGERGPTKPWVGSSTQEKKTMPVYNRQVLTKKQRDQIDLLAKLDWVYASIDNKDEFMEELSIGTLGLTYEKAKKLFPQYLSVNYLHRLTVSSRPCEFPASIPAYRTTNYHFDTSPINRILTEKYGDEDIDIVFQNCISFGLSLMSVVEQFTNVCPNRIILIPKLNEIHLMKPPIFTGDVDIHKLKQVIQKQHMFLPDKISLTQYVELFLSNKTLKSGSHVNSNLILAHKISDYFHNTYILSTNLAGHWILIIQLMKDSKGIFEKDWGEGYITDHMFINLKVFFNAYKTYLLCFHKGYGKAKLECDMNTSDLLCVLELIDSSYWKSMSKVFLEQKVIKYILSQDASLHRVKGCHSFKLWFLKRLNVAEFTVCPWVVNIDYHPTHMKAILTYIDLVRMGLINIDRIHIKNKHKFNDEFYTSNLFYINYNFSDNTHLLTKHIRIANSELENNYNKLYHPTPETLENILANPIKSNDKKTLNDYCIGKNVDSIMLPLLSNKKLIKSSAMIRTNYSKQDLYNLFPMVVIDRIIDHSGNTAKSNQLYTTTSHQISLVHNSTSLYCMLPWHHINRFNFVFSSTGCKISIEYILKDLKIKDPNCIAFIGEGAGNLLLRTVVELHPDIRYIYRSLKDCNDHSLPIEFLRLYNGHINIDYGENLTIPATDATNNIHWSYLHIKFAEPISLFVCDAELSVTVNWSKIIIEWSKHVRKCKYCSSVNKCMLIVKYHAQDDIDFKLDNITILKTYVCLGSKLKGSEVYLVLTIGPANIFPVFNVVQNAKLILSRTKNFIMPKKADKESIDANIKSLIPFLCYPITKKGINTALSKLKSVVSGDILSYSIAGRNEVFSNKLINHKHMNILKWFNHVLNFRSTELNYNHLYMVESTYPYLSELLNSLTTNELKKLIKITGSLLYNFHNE
Sequence of recombinant RSV complex (P03421 whole entry, further chain): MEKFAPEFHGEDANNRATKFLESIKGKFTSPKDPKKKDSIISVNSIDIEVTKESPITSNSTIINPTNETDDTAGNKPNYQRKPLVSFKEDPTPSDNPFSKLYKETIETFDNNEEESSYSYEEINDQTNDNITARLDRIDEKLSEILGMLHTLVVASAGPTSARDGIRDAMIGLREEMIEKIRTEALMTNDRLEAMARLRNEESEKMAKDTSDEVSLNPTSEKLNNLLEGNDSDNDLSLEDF

Row | Compound | CC50 at 5 days [1] [nM] | IC50 (recombinant RSV complex; [3]) [nM] | EC50 [2] [nM] | IC50 (recombinant RSV complex; [4]) [nM]
1 | COc1cc(C(=O)NCC(O)(c2cc(C3CCNCC3)cc(-c3ccc(F)cc3)n2)C(F)(F)F)ccc1OCCO (stereo not drawn) [Compound 18] | 10000 to 100000 | < 1000 | < 1000 | –
2 | COc1cc(C(=O)NC[C@@](O)(c2cc3c(c(-c4ccc(F)cc4)n2)OC[C@@]3(C)N)C(F)(F)F)cc(F)c1OC[C@@H](C)O [Compound 122] | 10000 to 100000 | < 1000 | < 1000 | –
3 | COc1ccc(C(=O)NCC(O)(c2cc(C(C)(C)N)cc(-c3ccc(F)cc3)n2)C(F)(F)F)cc1OC[C@@H](C)O (stereo partly drawn) [Compound 39] | 10000 to 100000 | < 1000 | < 1000 | –
4 | C[C@@]1(N)CNc2c1cc([C@](O)(CNC(=O)c1cc(OCCO)c3ncccc3c1)C(F)(F)F)nc2-c1ccc(F)cc1 [Compound 81] | 10000 to 100000 | < 1000 | < 1000 | –
5 | COc1cc(C(=O)NC[C@@](O)(c2cc([C@]3(C)CCN3)cc(-c3ccc(F)cc3)n2)C(F)(F)F)ccc1OC[C@@H](C)O (racemic) [Compound 14] | 10000 to 100000 | < 1000 | < 1000 | –
6 | COc1cc(C(=O)NC[C@@](O)(c2cc3c(c(-c4ccc(F)cc4)n2)NC[C@@]3(C)N)C(F)(F)F)cc2cc[nH]c12 [Compound 83] | 10000 to 100000 | < 1000 | < 1000 | –
7 | COc1cc(C(=O)NCC(O)(c2cc3c(c(-c4ccc(F)cc4)n2)CCC3(C)N)C(F)(F)F)ccc1OCCO (stereo not drawn) [Compound 73] | 10000 to 100000 | < 1000 | < 1000 | –
8 | CC1(N)COc2c1cc(C(O)(CNC(=O)c1ccc(CO)c(OC3CC3)c1)C(F)(F)F)nc2-c1ccc(F)cc1 (stereo not drawn) [Compound 22] | 10000 to 100000 | < 1000 | < 1000 | –
9 | COc1cc(C(=O)NCC(O)(c2cc(C(C)CCN)cc(-c3ccc(F)cc3)n2)C(F)(F)F)ccc1OCCO (stereo not drawn) [Compound 13] | 10000 to 100000 | < 1000 | < 1000 | –
10 | COc1cc(C(=O)NCC(O)(c2cc3c(c(-c4ccc(F)cc4)n2)OCCC3(C)N)C(F)(F)F)ccc1OC[C@@H](C)O (stereo partly drawn) [Compound 103] | 10000 to 100000 | < 1000 | < 1000 | –
11 | COc1cc(C(=O)NCC(O)(c2cc(N3CCNCC3)cc(-c3ccc(F)cc3)n2)C(F)(F)F)ccc1OCCO (stereo not drawn) [Compound 138] | 10000 to 100000 | < 1000 | 1000 to 50000 | –
12 | C[C@@]1(N)COc2c1cc([C@](O)(CNC(=O)c1ccc(OCCO)c(OC3CC3)c1)C(F)(F)F)nc2-c1ccc(F)cc1 [Compound 55] | 10000 to 100000 | < 1000 | < 1000 | –
13 | C[C@@H](O)COc1cc(C(=O)NCC(O)(c2cc(C(C)(C)N)cc(-c3ccc(F)cc3)n2)C(F)(F)F)ccc1OC1CC1 (stereo partly drawn) [Compound 38] | 10000 to 100000 | – | < 1000 | < 1000
14 | C[C@@]1(N)CNc2c1cc([C@](O)(CNC(=O)c1ccc3c(c1)CC(=O)N3CCO)C(F)(F)F)nc2-c1ccc(F)cc1 [Compound 82] | > 100000 | – | < 1000 | < 1000
15 | C[C@@]1(N)COc2c1cc([C@](O)(CNC(=O)c1cc3c(c(OC(F)F)c1)NC(=O)C3)C(F)(F)F)nc2-c1ccc(F)cc1 [Compound 98] | 10000 to 100000 | < 1000 | < 1000 | –
16 | COc1cc(C(=O)NCC(O)(c2cc3c(c(-c4ccc(F)cc4)n2)OCCC3(N)C2CC2)C(F)(F)F)ccc1OC[C@@H](C)O (stereo partly drawn) [Compound 92] | 10000 to 100000 | < 1000 | < 1000 | –
17 | CC1(N)COc2c1cc(C(O)(CNC(=O)c1ccc(CCO)c(OC3CC3)c1)C(F)(F)F)nc2-c1ccc(F)cc1 (stereo not drawn) [Compound 49] | 10000 to 100000 | < 1000 | < 1000 | –
18 | COc1cc(C(=O)NC[C@](O)(c2cc3c(c(-c4ccc(F)cc4)n2)OCC[C@]3(C)N)C(F)(F)F)ccc1OC[C@@H](C)O (single isomer, unassigned) [Compound 87] | > 100000 | < 1000 | < 1000 | –

— patent publication US10358453B2, “Antiviral compounds” (priority 2015, dated 2019)
